Results: PubChem BioAssay (NCI)
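The compound was tested at five concentrations on cells cultured in 96-well plates, with a 48-hour exposure period. TGI marks complete inhibition of growth.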

Legend:
Assay in all cases: NCI-60 cell line screen, 48 h
SW-620 colon = test system: SW-620 colon
SF-539 CNS = test system: SF-539 CNS
COLO 205 colon = test system: COLO 205 colon
DU-145 prostate = test system: DU-145 prostate
M14 melanoma = test system: M14 melanoma
MCF7 breast = test system: MCF7 breast
SK-MEL-2 melanoma = test system: SK-MEL-2 melanoma
U251 CNS = test system: U251 CNS
RPMI-8226 leukemia = test system: RPMI-8226 leukemia
SF-295 CNS = test system: SF-295 CNS
HCT-116 colon = test system: HCT-116 colon
SK-MEL-5 melanoma = test system: SK-MEL-5 melanoma
RXF 393 renal = test system: RXF 393 renal
A498 renal = test system: A498 renal
IGROV1 ovarian = test system: IGROV1 ovarian
UO-31 renal = test system: UO-31 renal
BT-549 breast = test system: BT-549 breast
MDA-N = test system: MDA-N
T-47D breast = test system: T-47D breast

CCCCCCc1cc2cc(-c3cn4ccccc4n3)c(=O)oc2cc1O
TGI (SW-620 colon): > 53.6 µM | TGI (SF-539 CNS): 7.19 µM | TGI (COLO 205 colon): > 100 µM | TGI (DU-145 prostate): 19.3 µM | TGI (M14 melanoma): 16.1 µM | TGI (MCF7 breast): 17.5 µM | TGI (SK-MEL-2 melanoma): 28.5 µM | TGI (U251 CNS): 10.2 µM | TGI (RPMI-8226 leukemia): 18.4 µM | TGI (SF-295 CNS): 34.1 µM | TGI (HCT-116 colon): 16.9 µM | TGI (SK-MEL-5 melanoma): 22.1 µM | TGI (RXF 393 renal): 15.1 µM | TGI (A498 renal): 50.7 µM | TGI (IGROV1 ovarian): 27.7 µM | TGI (UO-31 renal): 20.7 µM | TGI (BT-549 breast): 22.1 µM | TGI (MDA-N): 18.9 µM | TGI (T-47D breast): 52 µM

Cc1cc(S(=O)(=O)Nc2nnc3c(Cl)cc(C(F)(F)F)cn23)c(S)cc1Cl
TGI (SW-620 colon): > 100 µM | TGI (SF-539 CNS): > 100 µM | TGI (COLO 205 colon): > 100 µM | TGI (DU-145 prostate): > 100 µM | TGI (M14 melanoma): > 100 µM | TGI (MCF7 breast): > 100 µM | TGI (SK-MEL-2 melanoma): > 100 µM | TGI (U251 CNS): > 100 µM | TGI (RPMI-8226 leukemia): > 100 µM | TGI (SF-295 CNS): > 100 µM | TGI (HCT-116 colon): > 100 µM | TGI (SK-MEL-5 melanoma): > 80.6 µM | TGI (RXF 393 renal): > 100 µM | TGI (A498 renal): > 100 µM | TGI (IGROV1 ovarian): > 100 µM | TGI (UO-31 renal): > 100 µM | TGI (BT-549 breast): > 100 µM | TGI (MDA-N): > 100 µM | TGI (T-47D breast): > 100 µM

CC(C)(C)c1cc(OCc2n[nH]c(=S)n2N)c(Cl)cc1OCc1n[nH]c(=S)n1N
TGI (SW-620 colon): > 100 µM | TGI (SF-539 CNS): > 100 µM | TGI (COLO 205 colon): > 100 µM | TGI (DU-145 prostate): > 100 µM | TGI (M14 melanoma): > 100 µM | TGI (MCF7 breast): > 100 µM | TGI (SK-MEL-2 melanoma): 43 µM | TGI (U251 CNS): > 100 µM | TGI (RPMI-8226 leukemia): > 100 µM | TGI (SF-295 CNS): > 100 µM | TGI (HCT-116 colon): > 100 µM | TGI (SK-MEL-5 melanoma): 54.6 µM | TGI (RXF 393 renal): > 100 µM | TGI (A498 renal): > 100 µM | TGI (IGROV1 ovarian): > 100 µM | TGI (UO-31 renal): > 100 µM | TGI (BT-549 breast): > 100 µM | TGI (MDA-N): > 100 µM | TGI (T-47D breast): > 100 µM

CC1=C(N2CC2)C(=O)C(C)=C(N2CC2)C1=O
TGI (SW-620 colon): 3.41 µM | TGI (SF-539 CNS): 0.808 µM | TGI (COLO 205 colon): 0.822 µM | TGI (DU-145 prostate): 4.69 µM | TGI (M14 melanoma): 1.25 µM | TGI (MCF7 breast): 1.46 µM | TGI (SK-MEL-2 melanoma): 1.39 µM | TGI (U251 CNS): 0.994 µM | TGI (RPMI-8226 leukemia): 9.8 µM | TGI (SF-295 CNS): 1.47 µM | TGI (HCT-116 colon): 19.3 µM | TGI (SK-MEL-5 melanoma): 0.363 µM | TGI (RXF 393 renal): 0.329 µM | TGI (A498 renal): 0.403 µM | TGI (IGROV1 ovarian): 1.31 µM | TGI (UO-31 renal): 0.353 µM | TGI (BT-549 breast): 5.14 µM | TGI (MDA-N): 2.9 µM | TGI (T-47D breast): 15.5 µM

COC1=C(OC)C(=O)C(C/C=C/c2c(Cl)nc3sccn23)=C(C)C1=O
TGI (SW-620 colon): 46 µM | TGI (SF-539 CNS): 31.7 µM | TGI (COLO 205 colon): 31.9 µM | TGI (DU-145 prostate): 40.3 µM | TGI (M14 melanoma): 32.5 µM | TGI (MCF7 breast): 52.8 µM | TGI (SK-MEL-2 melanoma): 48.3 µM | TGI (U251 CNS): 25.6 µM | TGI (RPMI-8226 leukemia): 27.5 µM | TGI (SF-295 CNS): 21 µM | TGI (HCT-116 colon): 33.5 µM | TGI (SK-MEL-5 melanoma): 12.9 µM | TGI (RXF 393 renal): 37.5 µM | TGI (A498 renal): 48.2 µM | TGI (IGROV1 ovarian): 35.9 µM | TGI (UO-31 renal): 38.8 µM | TGI (BT-549 breast): 28.8 µM | TGI (MDA-N): 19.8 µM | TGI (T-47D breast): 84.2 µM
